Test results as given in patent US20260083865A1, “PROSTATE SPECIFIC MEMBRANE ANTIGEN (PSMA) LIGANDS AND USE THEREOF” (priority 2022, published 2026).
Read-outs that look alike come from different tables or passages of the source. Numbered stars: 1 amine (or outer) side, 2 acyl side, 3 side chain; on linkers, the order of the positions; unused ones are H or OH. Bridge positions count the residues as written; N and C are the ends. Square brackets hold non-standard residues; d marks the D form. Side chains are listed from the residue outwards. Peptide text beside a SMILES is read from it. * marks the point of attachment. DOTA = O=C(O)CN1CCN(CC(=O)O)CCN(CC(=O)*)CCN(CC(=O)O)CC1; Phe(4-Cl) = N[C@@H](Cc1ccc(Cl)cc1)C(=O)O; Arg(Me) = CNC(=N)NCCC[C@H](N)C(=O)O; Ethylenediamine = C(CN[*:2])N[*:1]; X1 = O=C(CC1CCN([*:1])CC1)[*:2]; Aad = N[C@@H](CCCC(=O)O)C(=O)O; Lys(Me) = CNCCCC[C@H](N)C(=O)O; Tle = CC(C)(C)[C@H](N)C(=O)O; Aib = CC(C)(N)C(=O)O; CO = O=C([*:1])[*:2]

Key:
[1] = biological target: T1, PSMA-expressing C4-2 cells (Homo sapiens, UniProt Q04609); assay: FACS binding assay (competition with 50 nM PSM-0183); settings: C4-2 cells, read-out: pIC50 [C4-2] CAT (converted)
T1 construct: PSMA-expressing C4-2 cells (ATCC, Cat. No. CRL-3314) were cultured in RPMI-1640; host or cells: C4-2 cells
T1 sequence (Q04609 whole entry): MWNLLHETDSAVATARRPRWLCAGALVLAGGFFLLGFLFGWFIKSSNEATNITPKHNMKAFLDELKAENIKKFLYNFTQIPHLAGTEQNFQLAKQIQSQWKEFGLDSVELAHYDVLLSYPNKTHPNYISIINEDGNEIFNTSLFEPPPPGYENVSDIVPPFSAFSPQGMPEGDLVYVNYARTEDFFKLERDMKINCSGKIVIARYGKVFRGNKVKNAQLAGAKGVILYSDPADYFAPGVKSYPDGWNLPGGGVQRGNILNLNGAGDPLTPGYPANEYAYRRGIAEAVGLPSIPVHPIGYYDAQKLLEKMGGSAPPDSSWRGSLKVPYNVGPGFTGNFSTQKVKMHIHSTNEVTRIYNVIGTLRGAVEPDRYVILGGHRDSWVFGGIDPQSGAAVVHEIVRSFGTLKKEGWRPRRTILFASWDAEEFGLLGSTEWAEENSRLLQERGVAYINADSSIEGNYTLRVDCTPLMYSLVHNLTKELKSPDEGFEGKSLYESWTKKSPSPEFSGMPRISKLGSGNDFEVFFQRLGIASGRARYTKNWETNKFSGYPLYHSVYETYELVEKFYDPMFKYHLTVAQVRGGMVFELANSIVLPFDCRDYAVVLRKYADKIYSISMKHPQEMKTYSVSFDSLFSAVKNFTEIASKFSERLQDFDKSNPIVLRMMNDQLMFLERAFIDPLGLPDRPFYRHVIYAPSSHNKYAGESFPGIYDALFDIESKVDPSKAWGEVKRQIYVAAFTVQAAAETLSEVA
In short: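 C4-2 cells were incubated 1 h at 4 °C with 50 nM AF488-labelled peptide PSM-0183 plus increasing test compound concentrations, then washed twice in ice-cold buffer. Median fluorescence in the AF488 channel was read by flow cytometry. IC50/pIC50 was derived by 4PL fitting of MFI versus concentration.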

[2] = biological target: T2, Fc-fusion protein of human PSMA (hPSMA-Fc) (Homo sapiens, UniProt Q04609); assay: Surface plasmon resonance assay (Biacore T200, single cycle kinetic); type: binding; settings: read-out: pKD CAT (converted)
T2 construct: purchased Acro Biosystems PSA-H5264
T2 sequence (Q04609 44-750 limits assumed): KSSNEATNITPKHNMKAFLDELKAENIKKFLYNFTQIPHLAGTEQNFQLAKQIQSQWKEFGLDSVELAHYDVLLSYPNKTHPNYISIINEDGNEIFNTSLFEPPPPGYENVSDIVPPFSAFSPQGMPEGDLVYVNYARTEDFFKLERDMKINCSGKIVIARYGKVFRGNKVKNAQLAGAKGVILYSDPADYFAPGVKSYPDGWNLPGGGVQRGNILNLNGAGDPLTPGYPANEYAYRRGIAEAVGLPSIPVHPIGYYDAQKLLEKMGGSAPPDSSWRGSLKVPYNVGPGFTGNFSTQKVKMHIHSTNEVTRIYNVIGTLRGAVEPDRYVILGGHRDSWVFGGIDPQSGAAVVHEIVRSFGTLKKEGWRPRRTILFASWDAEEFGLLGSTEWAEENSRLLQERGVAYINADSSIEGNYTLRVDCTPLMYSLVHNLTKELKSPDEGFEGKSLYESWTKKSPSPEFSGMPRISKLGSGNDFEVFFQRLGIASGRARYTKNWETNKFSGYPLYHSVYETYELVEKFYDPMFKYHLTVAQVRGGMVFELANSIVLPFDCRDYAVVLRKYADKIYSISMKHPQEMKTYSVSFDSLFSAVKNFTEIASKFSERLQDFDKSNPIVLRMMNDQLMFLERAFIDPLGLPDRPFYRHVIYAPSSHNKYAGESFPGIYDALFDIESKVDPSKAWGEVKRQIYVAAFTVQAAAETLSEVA
In short: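 hPSMA-Fc was captured (~1000 RU) on an Fc-binding-peptide CM5 chip, and compounds were run in single cycle kinetic mode at 25° C in HBST with 0.1% DMSO. Double-blank-corrected sensorgrams were fitted to a 1:1 Langmuir model to give KD, reported as pKD.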

recombinant human PSMA = biological target: T3, recombinant human PSMA (Homo sapiens, UniProt Q04609); assay: Enzyme inhibition assay (GCPII Inhibitor Screening Kit, fluorescence-based); type: biochemical; settings: carboxypeptidase activity of recombinant human PSMA; highest final concentration 1 μM
T3 construct: purchased BioVision K440-100
T3 sequence (Q04609 whole entry): as the sequence (Q04609 whole entry) above
Method: This peptidase activity hydrolyzes γ-peptide bonds between N-acetyl amino acid and glutamate of its substrate.
The carboxypeptidase inhibition of recombinant human PSMA by test compounds was assessed using a commercial fluorescence-based PSMA activity inhibition assay.
The employed Glutamate Carboxypeptidase II (GCPII) Inhibitor Screening Kit (BioVision, Cat #K440-100) is a fluorescence-based, enzymatic in vitro assay to measure the potency of PSMA inhibitors. The provided substrate is […] in the presence of PSMA producing glutamate. The detection system is based on an enzymatic reaction in which a fluorogenic probe is reduced, generating a stable signal.
For the assay, recombinant human PSMA was diluted in GCPII Assay Buffer as recommended in the assay protocol. Serial dilutions of the test compounds were prepared, starting from 10 μM (final reaction concentration of 1 μM). In a 96-well assay plate, 40 μL of the PSMA working solution was mixed with 30 μL of GCPII Assay Buffer. Next, 10 μL of the serially diluted test compounds were added. The mixture was incubated for 20 min at 37° C. Subsequently, 20 μL of a reaction mix solution was added. The fluorescence signal increased due to fluorophore reduction, which is directly proportional to the produced amount of glutamate, was measured in kinetic mode for 90 minutes at 37° C. in a SpectraMax M5 plate reader. RFU/see was assessed by the SoftMax Pro software and plotted against peptide concentrations. Four-parameter logistic (4PL) curve fitting and pIC50 calculations were performed using the GraphPad Prism software.

PC3-PIP tumor model = tested on: PC3-PIP tumor model; set-up: species or system mice; settings: mouse, in vivo
In short: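 Male nude mice bearing shoulder xenografts (5×10^6 PC3-PIP cells, or 5×10^6 or 1×10^7 C4-2 cells) received ~30 MBq of ^111In-labeled compound intravenously via tail vein. SPECT/CT regions of interest for heart, kidney and tumor gave % ID/g, mean of two to three animals per time point, range as error.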

[3] = pKD category for PSMA SPR activity assay, hPSMA-Fc, 25° C.

IC50 ([1]; FACS binding, competition with 50 nM PSM-0183, category) [nM]	Kd ([2]; SPR, hPSMA-Fc, single cycle kinetic, 25° C., category) [nM]	IC50 (recombinant human PSMA) [nM]	AUC ratio [T/K] (PC3-PIP tumor model)	Tumor AUC (PC3-PIP tumor model) [% ID/g*h]	IC50 ([1]; pIC50 category of FACS binding) [nM]	Kd [2, 3] [nM]	IC50 ([1]; FACS binding, category) [nM]	Kd ([2]; PSMA SPR assay, category) [nM]	SMILES
		> 1000			< 200	< 12.6			CC(=O)N[C@H](C(=O)NC(C)(C)C(=O)N[C@@H](Cc1ccccc1)C(=O)N[C@H]1CSSC[C@@H](C(=O)N[C@H](C(=O)N[C@H](C(=O)N[C@@H](CC(=O)O)C(N)=O)[C@@H](C)O)C(C)(C)C)NC(=O)[C@H](CC(N)=O)NC(=O)C(C)(C)NC(=O)[C@H](CCCNC(=N)N)NC(=O)[C@H](CCCCN)NC1=O)[C@@H](C)O [PSM-0374, Ac-Thr-Aib-Phe-[Cys-Lys-Arg-Aib-Asn-Cys]-Tle-Thr-Asp-NH2] (Ac-T[Aib]FCKR[Aib]NC[Tle]TD-NH2; disulfide 4-9)
		> 1000			< 200	< 12.6			CC(=O)NC(C)(C)C(=O)N[C@@H](Cc1ccc(Cl)cc1)C(=O)N[C@H]1CSSC[C@@H](C(=O)N[C@H](C(N)=O)C(C)(C)C)NC(=O)[C@H](CC(N)=O)NC(=O)C(C)(C)NC(=O)[C@H](CCCNC(=N)N)NC(=O)[C@H](CCCCN)NC1=O [PSM-0424, Ac-Aib-Pcf-[Cys-Lys-Arg-Aib-Asn-Cys]-Tle-NH2] (Ac-[Aib][Phe(4-Cl)]CKR[Aib]NC[Tle]-NH2; disulfide 3-8)
			1.1	220	< 200	< 12.6			C[C@@H](O)[C@H](NC(=O)CN1CCN(CC(=O)O)CCN(CC(=O)O)CCN(CC(=O)O)CC1)C(=O)NC(C)(C)C(=O)N[C@@H](Cc1ccc(Cl)cc1)C(=O)N[C@H]1CSSC[C@@H](C(=O)N[C@H](C(N)=O)C(C)(C)C)NC(=O)[C@H](CC(N)=O)NC(=O)C(C)(C)NC(=O)[C@H](CCCNC(=N)N)NC(=O)[C@H](CCCCN)NC1=O [PSM-0534, DOTA-Thr-Aib-Pcf-[Cys-Lys-Arg-Aib-Asn-Cys]-Tle-NH2] ({DOTA}-T[Aib][Phe(4-Cl)]CKR[Aib]NC[Tle]-NH2; disulfide 4-9)
			1.1	160			< 200	< 12.6	C[C@@H](O)[C@H](NC(=O)[C@@H](NC(=O)[C@@H]1CSSC[C@H](NC(=O)[C@H](Cc2ccc(Cl)cc2)NC(=O)C(C)(C)NC(=O)[C@@H](NC(=O)CN2CCN(CC(=O)O)CCN(CC(=O)O)CCN(CC(=O)O)CC2)[C@@H](C)O)C(=O)N[C@@H](CCCCN)C(=O)N[C@@H](CCCNC(=N)N)C(=O)NC(C)(C)C(=O)N[C@@H](CC(N)=O)C(=O)N1)C(C)(C)C)C(N)=O [PSM-0573, DOTA-Thr-Aib-Pcf-[Cys-Lys-Arg-Aib-Asn-Cys]-Tle-Thr-NH2] ({DOTA}-T[Aib][Phe(4-Cl)]CKR[Aib]NC[Tle]T-NH2; disulfide 4-9)
			1.6	110			< 200	< 12.6	C[C@@H](O)[C@H](NC(=O)[C@@H](NC(=O)[C@@H]1CSSC[C@H](NC(=O)[C@H](Cc2ccccc2)NC(=O)C(C)(C)NC(=O)[C@@H](NC(=O)CN2CCN(CC(=O)O)CCN(CC(=O)O)CCN(CC(=O)O)CC2)[C@@H](C)O)C(=O)N[C@@H](CCCCN)C(=O)N[C@@H](CCCNC(=N)N)C(=O)NC(C)(C)C(=O)N[C@@H](CC(N)=O)C(=O)N1)C(C)(C)C)C(N)=O [PSM-0580, DOTA-Thr-Aib-Phe-[Cys-Lys-Arg-Aib-Asn-Cys]-Tle-Thr-NH2] ({DOTA}-T[Aib]FCKR[Aib]NC[Tle]T-NH2; disulfide 4-9)

Second part, the compound before the results:

SMILES	IC50 ([1]; FACS binding, competition with 50 nM PSM-0183, category) [nM]	Kd ([2]; SPR, hPSMA-Fc, single cycle kinetic, 25° C., category) [nM]	IC50 (recombinant human PSMA) [nM]	AUC ratio [T/K] (PC3-PIP tumor model)	Tumor AUC (PC3-PIP tumor model) [% ID/g*h]	IC50 ([1]; pIC50 category of FACS binding) [nM]	Kd [2, 3] [nM]	IC50 ([1]; FACS binding, category) [nM]	Kd ([2]; PSMA SPR assay, category) [nM]
CNCCCC[C@@H]1NC(=O)[C@@H](NC(=O)[C@H](Cc2ccc(Cl)cc2)NC(=O)C(C)(C)NC(=O)[C@@H](NC(=O)CC2CCN(C(=O)CN3CCN(CC(=O)O)CCN(CC(=O)O)CCN(CC(=O)O)CC3)CC2)[C@@H](C)O)CSSC[C@@H](C(=O)N[C@H](C(=O)N[C@H](C(N)=O)[C@@H](C)O)C(C)(C)C)NC(=O)[C@H](CC(N)=O)NC(=O)C(C)(C)NC(=O)[C@H](CCCNC(=N)NC)NC1=O [PSM-0194, DOTA-Cmp-Thr-Aib-Pcf-[Cys-Lys(Me)-Arg(Me)-Aib-Asn-Cys]-Tle-Thr-NH2] ({DOTA}-[X1]T[Aib][Phe(4-Cl)]C[Lys(Me)][Arg(Me)][Aib]NC[Tle]T-NH2; disulfide 5-10)	< 200	< 12.6	> 1000	6.7	180				
C[C@@H](O)[C@H](NC(=O)[C@@H](NC(=O)[C@@H]1CSSC[C@H](NC(=O)[C@H](Cc2ccc(Cl)cc2)NC(=O)C(C)(C)NC(=O)[C@@H](NC(=O)CC2CCN(C(=O)CN3CCN(CC(=O)O)CCN(CC(=O)O)CCN(CC(=O)O)CC3)CC2)[C@@H](C)O)C(=O)N[C@@H](CCCCN)C(=O)N[C@@H](CCCNC(=N)N)C(=O)N[C@@H](CCC(=O)O)C(=O)N[C@@H](CC(N)=O)C(=O)N1)C(C)(C)C)C(N)=O [PSM-0416, DOTA-Cmp-Thr-Aib-Pcf-[Cys-Lys-Arg-Glu-Asn-Cys]-Tle-Thr-NH2] ({DOTA}-[X1]T[Aib][Phe(4-Cl)]CKRENC[Tle]T-NH2; disulfide 5-10)			> 1000	1.6	170	< 200	< 12.6		
CC(=O)NC(C)(C)C(=O)N[C@@H](Cc1ccc(Cl)cc1)C(=O)N[C@H]1CSSC[C@@H](C(=O)N[C@H](C(=O)NCCNC(=O)CN2CCN(CC(=O)O)CCN(CC(=O)O)CCN(CC(=O)O)CC2)C(C)(C)C)NC(=O)[C@H](CC(N)=O)NC(=O)C(C)(C)NC(=O)[C@H](CCCNC(=N)N)NC(=O)[C@H](CCCCN)NC1=O [PSM-0516, Ac-Aib-Pcf-[Cys-Lys-Arg-Aib-Asn-Cys]-Tle-en-DOTA] (Ac-[Aib][Phe(4-Cl)]CKR[Aib]NC[Tle]-{Ethylenediamine-DOTA}; disulfide 3-8)			> 1000	1.4	250	< 200	< 12.6		
C[C@@H](O)[C@H](NC(=O)[C@@H](NC(=O)[C@@H]1CSSC[C@H](NC(=O)[C@H](Cc2ccc(Cl)cc2)NC(=O)C(C)(C)NC(=O)[C@@H](NC(=O)CC2CCN(C(=O)CN3CCN(CC(=O)O)CCN(CC(=O)O)CCN(CC(=O)O)CC3)CC2)[C@@H](C)O)C(=O)N[C@@H](CCCCN)C(=O)N[C@@H](CCCC(N)=O)C(=O)NC(C)(C)C(=O)N[C@@H](CC(N)=O)C(=O)N1)C(C)(C)C)C(N)=O [PSM-0531, DOTA-Cmp-Thr-Aib-Pcf-[Cys-Lys-Hgn-Aib-Asn-Cys]-Tle-Thr-NH2] ({DOTA}-[X1]T[Aib][Phe(4-Cl)]CK[Aad](NH2)[Aib]NC[Tle]T-NH2; disulfide 5-10)				1.6	120	< 200	< 12.6		
CCNC(=O)NC(=N)NCCC[C@@H]1NC(=O)[C@H](CCCCN)NC(=O)[C@@H](NC(=O)[C@H](Cc2ccc(Cl)cc2)NC(=O)C(C)(C)NC(=O)[C@@H](NC(=O)CC2CCN(C(=O)CN3CCN(CC(=O)O)CCN(CC(=O)O)CCN(CC(=O)O)CC3)CC2)[C@@H](C)O)CSSC[C@@H](C(=O)N[C@H](C(=O)N[C@H](C(N)=O)[C@@H](C)O)C(C)(C)C)NC(=O)[C@H](CC(N)=O)NC(=O)C(C)(C)NC1=O [PSM-0579, DOTA-Cmp-Thr-Aib-Pcf-[Cys-Lys-Arg(EtCAyl)-Aib-Asn-Cys]-Tle-Thr-NH2] ({DOTA}-[X1]T[Aib][Phe(4-Cl)]CKR([CO-NHEt])[Aib]NC[Tle]T-NH2; disulfide 5-10)				0.6	110			< 200	< 12.6
